Test results taken from PubChem BioAssay (NCI).
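Results reflect a 48-hour exposure of cells in 96-well plates to compound at five concentrations. TGI denotes the concentration required for complete inhibition of growth.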

Assays:
Assay in all cases: inhibition of tumour cell growth, NCI panel, 48 h
OVCAR-8 ovarian = tested on: OVCAR-8 ovarian
MDA-MB-435 = tested on: MDA-MB-435
SK-MEL-2 melanoma = tested on: SK-MEL-2 melanoma
UACC-62 melanoma = tested on: UACC-62 melanoma
HOP-62 NSCLC = tested on: HOP-62 NSCLC
NCI-H226 lung = tested on: NCI-H226 lung
ACHN renal = tested on: ACHN renal
M14 melanoma = tested on: M14 melanoma
DU-145 prostate = tested on: DU-145 prostate
EKVX NSCLC = tested on: EKVX NSCLC
UACC-257 melanoma = tested on: UACC-257 melanoma
NCI-H23 lung = tested on: NCI-H23 lung
KM12 colon = tested on: KM12 colon
SW-620 colon = tested on: SW-620 colon
SF-295 CNS = tested on: SF-295 CNS
HCT-116 colon = tested on: HCT-116 colon
SR leukemia = tested on: SR leukemia
LOX IMVI melanoma = tested on: LOX IMVI melanoma
COLO 205 colon = tested on: COLO 205 colon
PC-3 prostate = tested on: PC-3 prostate
RPMI-8226 leukemia = tested on: RPMI-8226 leukemia
SF-268 CNS = tested on: SF-268 CNS
T-47D breast = tested on: T-47D breast
SK-MEL-28 melanoma = tested on: SK-MEL-28 melanoma
HCC-2998 colon = tested on: HCC-2998 colon
MOLT-4 leukemia = tested on: MOLT-4 leukemia
U251 CNS = tested on: U251 CNS
MDA-N = tested on: MDA-N
MDA-MB-231 breast = tested on: MDA-MB-231 breast
OVCAR-3 ovarian = tested on: OVCAR-3 ovarian
SK-OV-3 ovarian = tested on: SK-OV-3 ovarian
786-0 renal = tested on: 786-0 renal
A549 NSCLC = tested on: A549 NSCLC
RXF 393 renal = tested on: RXF 393 renal
NCI-H460 lung = tested on: NCI-H460 lung
HS 578T breast = tested on: HS 578T breast
HCT-15 colon = tested on: HCT-15 colon
TK-10 renal = tested on: TK-10 renal
SN12C renal = tested on: SN12C renal
SNB-75 CNS = tested on: SNB-75 CNS
UO-31 renal = tested on: UO-31 renal
BT-549 breast = tested on: BT-549 breast
MCF7 breast = tested on: MCF7 breast
A498 renal = tested on: A498 renal
K-562 leukemia = tested on: K-562 leukemia
NCI/ADR-RES ovarian = tested on: NCI/ADR-RES ovarian
OVCAR-5 ovarian = tested on: OVCAR-5 ovarian
OVCAR-4 ovarian = tested on: OVCAR-4 ovarian
SNB-19 CNS = tested on: SNB-19 CNS
HT29 colon = tested on: HT29 colon
CAKI-1 renal = tested on: CAKI-1 renal
SF-539 CNS = tested on: SF-539 CNS
NCI-H522 lung = tested on: NCI-H522 lung
CCRF-CEM leukemia = tested on: CCRF-CEM leukemia
SK-MEL-5 melanoma = tested on: SK-MEL-5 melanoma
IGROV1 ovarian = tested on: IGROV1 ovarian
MALME-3M melanoma = tested on: MALME-3M melanoma
HL-60(TB) leukemia = tested on: HL-60(TB) leukemia
HOP-92 NSCLC = tested on: HOP-92 NSCLC

Measured: TGI

O=C(O)CCC(N=C(C(=NC(CCC(=O)O)C(=O)O)c1ccccc1)c1ccccc1)C(=O)O (centres undefined)
not listed: HT29 colon | CAKI-1 renal | SF-539 CNS | NCI-H522 lung | CCRF-CEM leukemia | SK-MEL-5 melanoma | IGROV1 ovarian | MALME-3M melanoma | HL-60(TB) leukemia | HOP-92 NSCLC
> 100 µM: all other assays above

C#Cc1nc(N)c2ncn(C3OC(COS(N)(=O)=O)C(O)C3O)c2n1 (centres undefined)
0.0717 µM: MDA-MB-435
< 0.0291 µM: NCI/ADR-RES ovarian
0.298 µM: SK-MEL-28 melanoma
1.29 µM: EKVX NSCLC
0.191 µM: HCC-2998 colon
< 0.0172 µM: SR leukemia
0.0196 µM: SK-MEL-2 melanoma
< 0.0476 µM: MDA-MB-231 breast
0.0997 µM: DU-145 prostate
0.15 µM: UO-31 renal
0.457 µM: M14 melanoma
0.327 µM: TK-10 renal
3.17 µM: SF-295 CNS
0.665 µM: SW-620 colon
1.56 µM: A549 NSCLC
< 0.0258 µM: MOLT-4 leukemia | CCRF-CEM leukemia
< 0.0325 µM: LOX IMVI melanoma
0.344 µM: SK-MEL-5 melanoma
0.736 µM: HS 578T breast
0.288 µM: HCT-116 colon
1.97 µM: HOP-62 NSCLC
0.114 µM: IGROV1 ovarian
0.198 µM: SF-539 CNS
0.194 µM: OVCAR-8 ovarian
0.0901 µM: OVCAR-3 ovarian
0.213 µM: PC-3 prostate
0.122 µM: OVCAR-5 ovarian
0.429 µM: HCT-15 colon
< 0.0302 µM: A498 renal
0.634 µM: NCI-H460 lung
0.0866 µM: RXF 393 renal
0.352 µM: KM12 colon
0.349 µM: SNB-75 CNS | BT-549 breast
0.0743 µM: ACHN renal
0.266 µM: SNB-19 CNS
0.225 µM: CAKI-1 renal
0.136 µM: NCI-H23 lung
0.369 µM: UACC-62 melanoma
> 100 µM: MCF7 breast | K-562 leukemia
0.449 µM: U251 CNS
0.481 µM: HT29 colon
0.339 µM: UACC-257 melanoma
0.0491 µM: NCI-H226 lung
< 0.01 µM: T-47D breast | NCI-H522 lung | SK-OV-3 ovarian
0.797 µM: 786-0 renal
0.256 µM: SN12C renal
0.11 µM: RPMI-8226 leukemia
< 0.0299 µM: MDA-N
0.688 µM: SF-268 CNS

CCOC(=O)C(NC(=O)c1ccccc1)(Nc1cc(C)on1)C(F)(F)F (centres undefined)
56.2 µM: MDA-MB-231 breast
not listed: SR leukemia | NCI-H460 lung | A498 renal
> 100 µM: all other assays above
